Experimental data published in patent publication US20030161902A1, “Increased lifespan formulation” (priority 2001, published 2003).

Experiments:
[1] = tested on: mice; details: cited from earlier work
[2] = Antioxidant activity of mouse food and pine bark extract (Table 2); type: biochemical
Method: The experimental mice were fed ad libitum on Archer's mouse food pellets dosed with measured doses of pine bark extract manufactured as above. Preferably, the present composition is administered in a form selected from the group including: a tablet; a capsule; a suppository; an injection; a suspension; a drink; a tonic; a syrup; a powder; an ingredient in solid foods; an ingredient in liquid foods; and combinations thereof, all of which are considered equivalent. Most preferably, the composition is administered orally as a powder mixed with food. The antioxidant composition of the food was as follows (Table 2 below): […]

[3] = tested on: rodent; details: rodent trials, dietary supplementation; cited from earlier work

Row | Compound | effect on maximum lifespan ([1]; mice fed supplement) | toxicity ([1]; mouse, in vivo) | EC50 ([2]; antioxidant composition of sample) | RELATIVE ANTIOXIDANT ACTIVITY ([2]; relative to mouse pellet = 1) | effect on mean survivorship and maximum life span [3]
1 | OCCS [2-mercaptoethanol] | increase in maximum lifespan | toxic |  |  | 
2 | O=C1O[C@H]([C@@H](O)CO)C(O)=C1O [Vitamin C] |  |  | 3.79 µg/mL | 1.76 | Increases in mean survivorship, but not maximum life span
3 | vitamin E |  |  |  |  | Increases in mean survivorship, but not maximum life span
